Experiments:
[1] = molecular target: T1, Escherichia coli pimeloyl-[acp] methyl ester methylesterase (SEQ ID NO: 1) (Escherichia coli, UniProt P13001); assay: pimeloyl-[acp] methyl ester methylesterase enzyme activity assay, glutaryl-CoA formation by LC-MS; assay type: biochemical; conditions: SEQ ID NO 1, 10 μM enzyme; 5 mM glutaryl-CoA methyl ester, 25 mM Tris.HCl pH 7.0, 30° C., 1 h
T1 construct: His-tag (C); made in house; host or cells: E. coli BL21[DE3], pET28b+
Experimental: A sequence encoding an C-terminal His-tag was added to the gene from Escherichia coli encoding the pimeloyl-[acp] methyl ester methylesterase of SEQ ID NO: 1 (see FIG. 10) such that C-terminal HIS tagged pimeloyl-[acp] methyl ester methylesterase could be produced. The resulting modified gene was cloned into a pET28b+ expression vector under control of the T7 promoter and the expression vector was transformed into a BL21[DE3] E. coli host. The resulting recombinant E. coli strain was cultivated at 37° C. in a 500 mL shake flask culture containing 100 mL LB media and antibiotic selection pressure, with shaking at 230 rpm. Each culture was induced overnight at 18° C. using 0.3 mM IPTG.
The pellet from each induced shake flask culture was harvested via centrifugation. Each pellet was resuspended and lysed via sonication. The cell debris was separated from the supernatant via centrifugation. The pimeloyl-[acp] methyl ester methylesterase was purified from the supernatant using Ni-affinity chromatography, buffer exchanged and concentrated into 20 mM HEPES buffer (pH=7.5) via ultrafiltration and stored at 4° C.
Enzyme activity assays converting glutaryl-CoA methyl ester to glutaryl-CoA were performed in triplicate in a buffer composed of a final concentration of 25 mM Tris.HCl buffer (pH=7.0) and 5 [mM] glutaryl-CoA methyl ester. […] The formation of glutaryl-CoA was quantified via LC-MS.

[2] = system: Chromobacterium violaceum ω-transaminase (SEQ ID NO: 8); assay: ω-transaminase enzyme activity assay, amine substrate plus pyruvate to L-alanine (cell free extract); assay type: biochemical; conditions: forward (amine-forming) direction, inferred from the reverse assay
[3] = system: Segniliparus rotundus carboxylate reductase (SEQ ID NO: 7), enhanced by the gene product of sfp; assay: carboxylate reductase enzyme activity assay, NADPH consumption at 340 nm; assay type: biochemical; conditions: SEQ ID NO 7 with sfp; 2 mM substrate, 10 mM MgCl2, 1 mM ATP, 1 mM NADPH, pH 7.5, room temperature, 20 min; absorbance at 340 nm
Experimental: (§1) A nucleotide sequence encoding a His-tag was added to the genes from Mycobacterium marinum, Mycobacterium smegmatis, Segniliparus rugosus, Mycobacterium massiliense, and Segniliparus rotundus that encode the carboxylate reductases of SEQ ID NOs: 2-4, 6 and 7, respectively (GenBank Accession Nos. ACC40567.1, ABK71854.1, EFV11917.1, EIV11143.1, and ADG98140.1, respectively) (see FIG. 10) such that N-terminal HIS tagged carboxylate reductases could be produced. Each of the modified genes was cloned into a pET Duet expression vector alongside a sfp gene encoding a His-tagged phosphopantetheine transferase from Bacillus subtilis, both under control of the T7 promoter. Each expression vector was transformed into a BL21[DE3] E. coli host along with the expression vectors from Example 3. Each resulting recombinant E. coli strain was cultivated at 37° C. in a 250 mL shake flask culture containing 50 mL LB media and antibiotic selection pressure, with shaking at 230 rpm. Each culture was induced overnight at 37° C. using an auto-induction media.
The pellet from each induced shake flask culture was harvested via centrifugation. Each pellet was resuspended and lysed via sonication. The cell debris was separated from the supernatant via centrifugation. […]
(§2) Enzyme activity (i.e., 5-hydroxypentanoate to 5-hydroxypentanal) assays were performed in triplicate in a buffer composed of a final concentration of 50 mM HEPES buffer (pH=7.5), 2 mM 5-hydroxypentanal, 10 mM MgCl2, 1 mM ATP, and 1 mM NADPH. […] The consumption of NADPH was monitored by absorbance at 340 nm.
The N-terminal His-tagged carboxylate reductase of SEQ ID NO 7 (see Example 2 and FIG. 10) was assayed using glutarate semialdehyde as substrate. […] The consumption of NADPH was monitored by absorbance at 340 nm.
The N-terminal His-tagged carboxylate reductase of SEQ ID NO 2-4 and 7 (see Example 2 and FIG. 10) was assayed using glutarate methyl ester as substrate. […] The consumption of NADPH was monitored by absorbance at 340 nm.

[4] = system: transaminase of SEQ ID NO 10; assay: ω-transaminase enzyme activity assay in the forward direction, glutarate semialdehyde plus L-alanine to pyruvate; assay type: biochemical, Pseudomonas syringae; conditions: 10 mM glutarate semialdehyde, 10 mM L-alanine, 100 μM pyridoxyl 5′ phosphate, pH 7.5, 25° C., 4 h, pyruvate by RP-HPLC
Experimental: A nucleotide sequence encoding an N-terminal His-tag was added to the genes from Chromobacterium violaceum and Rhodobacter sphaeroides encoding the ω-transaminases of SEQ ID NOs: 8 and 10 respectively (see FIG. 10) such that N-terminal HIS tagged ω-transaminases could be produced. Each of the resulting modified genes was cloned into a pET21a expression vector under control of the T7 promoter and each expression vector was transformed into a BL21[DE3] E. coli host. The resulting recombinant E. coli strains were cultivated at 37° C. in a 250 mL shake flask culture containing 50 mL LB media and antibiotic selection pressure, with shaking at 230 rpm. Each culture was induced overnight at 16° C. using 1 mM IPTG.
The pellet from each induced shake flask culture was harvested via centrifugation. Each pellet was resuspended and lysed via sonication. The cell debris was separated from the supernatant via centrifugation and the cell free extract was used immediately in enzyme activity assays.
Enzyme activity in the forward direction (i.e., glutarate semialdehyde to 5-aminopentanoate) was confirmed for the transaminase of SEQ ID NO 10. Enzyme activity assays were performed in a buffer composed of a final concentration of 50 mM HEPES buffer (pH=7.5), 10 mM glutarate semialdehyde, 10 mM L-alanine and 100 μM pyridoxyl 5′ phosphate. […] The formation of pyruvate was quantified via RP-HPLC.

[5] = system: Mycobacterium massiliense carboxylate reductase (SEQ ID NO: 6), enhanced by the gene product of sfp; assay: carboxylate reductase enzyme activity assay, NADPH consumption at 340 nm; assay type: biochemical; conditions: SEQ ID NO 6 with sfp; 2 mM substrate, 10 mM MgCl2, 1 mM ATP, 1 mM NADPH, pH 7.5, room temperature, 20 min; absorbance at 340 nm
Experimental: as §1, with “media. […]” for “media.”
as §2

[6] = system: Segniliparus rugosus carboxylate reductase (SEQ ID NO: 4), enhanced by the gene product of sfp; assay: as above; assay type: biochemical; conditions: SEQ ID NO 4 with sfp; 2 mM substrate, 10 mM MgCl2, 1 mM ATP, 1 mM NADPH, pH 7.5, room temperature, 20 min; absorbance at 340 nm
Experimental: as §1
(§3) The pellet from each induced shake flask culture was harvested via centrifugation. Each pellet was resuspended and lysed via sonication. The cell debris was separated from the supernatant via centrifugation. The carboxylate reductases and phosphopantetheine transferase were purified from the supernatant using Ni-affinity chromatography, diluted 10-fold into 50 mM HEPES buffer (pH=7.5) and concentrated via ultrafiltration.
(§4) Enzyme activity (i.e., 5-hydroxypentanoate to 5-hydroxypentanal) assays were performed in triplicate in a buffer composed of a final concentration of 50 mM HEPES buffer (pH=7.5), 2 mM 5-hydroxypentanal, 10 mM MgCl2, 1 mM ATP, and 1 mM NADPH. Each enzyme activity assay reaction was initiated by adding purified carboxylate reductase and phosphopantetheine transferase or the empty vector control to the assay buffer containing the 5-hydroxypentanoate and then incubated at room temperature for 20 min. The consumption of NADPH was monitored by absorbance at 340 nm.
(§5) The N-terminal His-tagged carboxylate reductase of SEQ ID NO 2-4 and 7 (see Example 2 and FIG. 10) was assayed using glutarate methyl ester as substrate. The enzyme activity assay was performed in triplicate in a buffer composed of a final concentration of 50 mM HEPES buffer (pH=7.5), 2 mM glutarate methyl ester, 10 mM MgCl2, 1 mM ATP and 1 mM NADPH. The enzyme activity assay reaction was initiated by adding purified carboxylate reductase and phosphopantetheine transferase or the empty vector control to the assay buffer containing the glutarate semialdehyde and then incubated at room temperature for 20 min. The consumption of NADPH was monitored by absorbance at 340 nm.

[7] = molecular target: T2, Mycobacterium marinum carboxylate reductase (SEQ ID NO: 2), enhanced by the gene product of sfp (Mycobacterium marinum, UniProt B2HN69); assay: as above; assay type: biochemical; conditions: SEQ ID NO 2 with sfp; 2 mM substrate, 10 mM MgCl2, 1 mM ATP, 1 mM NADPH, pH 7.5, room temperature, 20 min; absorbance at 340 nm
T2 construct: His-tag (N); made in house; host or cells: E. coli BL21[DE3], pET Duet
T2 sequence (B2HN69 whole entry): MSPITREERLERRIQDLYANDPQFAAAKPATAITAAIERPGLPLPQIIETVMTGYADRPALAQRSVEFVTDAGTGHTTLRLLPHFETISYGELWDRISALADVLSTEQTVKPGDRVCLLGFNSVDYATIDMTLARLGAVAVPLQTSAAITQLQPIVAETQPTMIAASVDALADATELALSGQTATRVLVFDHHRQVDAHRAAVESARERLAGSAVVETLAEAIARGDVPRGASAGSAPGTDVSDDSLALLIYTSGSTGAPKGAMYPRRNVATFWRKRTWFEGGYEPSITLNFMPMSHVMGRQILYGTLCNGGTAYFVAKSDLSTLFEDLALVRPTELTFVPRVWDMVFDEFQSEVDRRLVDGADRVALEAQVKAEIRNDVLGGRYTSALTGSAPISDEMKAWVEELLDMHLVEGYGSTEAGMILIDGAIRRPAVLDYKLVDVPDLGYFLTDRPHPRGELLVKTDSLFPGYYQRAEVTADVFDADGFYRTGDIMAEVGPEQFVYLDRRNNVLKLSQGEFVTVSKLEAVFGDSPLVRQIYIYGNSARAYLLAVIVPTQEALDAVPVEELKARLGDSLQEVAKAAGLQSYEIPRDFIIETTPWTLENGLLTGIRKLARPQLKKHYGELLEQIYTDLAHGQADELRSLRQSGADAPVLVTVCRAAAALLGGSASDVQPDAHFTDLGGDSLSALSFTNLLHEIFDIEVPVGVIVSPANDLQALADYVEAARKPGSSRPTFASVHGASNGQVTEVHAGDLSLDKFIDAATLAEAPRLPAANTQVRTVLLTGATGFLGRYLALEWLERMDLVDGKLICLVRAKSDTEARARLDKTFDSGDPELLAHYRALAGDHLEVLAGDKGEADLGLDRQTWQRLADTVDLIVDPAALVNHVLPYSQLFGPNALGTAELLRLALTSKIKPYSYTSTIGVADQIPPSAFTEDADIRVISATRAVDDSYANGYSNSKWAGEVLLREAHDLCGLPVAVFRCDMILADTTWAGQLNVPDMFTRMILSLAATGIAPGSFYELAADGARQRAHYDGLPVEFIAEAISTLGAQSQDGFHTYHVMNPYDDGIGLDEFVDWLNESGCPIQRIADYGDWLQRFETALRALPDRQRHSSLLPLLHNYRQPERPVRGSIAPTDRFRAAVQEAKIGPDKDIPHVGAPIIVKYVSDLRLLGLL
Experimental: as §1, §3, §4, §5

[8] = system: Mycobacterium smegmatis carboxylate reductase (SEQ ID NO: 3), enhanced by the gene product of sfp; assay: as above; assay type: biochemical; conditions: SEQ ID NO 3 with sfp; 2 mM substrate, 10 mM MgCl2, 1 mM ATP, 1 mM NADPH, pH 7.5, room temperature, 20 min; absorbance at 340 nm
Experimental: as §1, §3, §4, §5

T1 sequence (P13001 whole entry): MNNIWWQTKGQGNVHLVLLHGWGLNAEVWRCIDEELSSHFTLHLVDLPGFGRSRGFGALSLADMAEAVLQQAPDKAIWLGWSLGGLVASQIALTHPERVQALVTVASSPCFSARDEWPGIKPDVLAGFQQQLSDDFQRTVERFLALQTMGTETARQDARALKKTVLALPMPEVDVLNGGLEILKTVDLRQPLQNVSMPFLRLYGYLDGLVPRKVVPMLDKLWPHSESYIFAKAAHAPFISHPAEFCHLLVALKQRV

COC(=O)CCCC(=O)SCCNC(=O)CCNC(=O)C(O)C(C)(C)COP(=O)(O)OP(=O)(O)OCC1OC(n2cnc3c(N)ncnc32)C(O)C1OP(=O)(O)O (stereo not drawn) [glutaryl-CoA methyl ester]
accepted: accepted as substrate, glutaryl-CoA synthesized as reaction product as confirmed via LC-MS [1]

O=CCCCC(=O)O [glutarate semialdehyde]
accepted: accepted as substrate, concluded from the reversibility of the ω-transaminase activity [2] | accepted as substrate as confirmed against the empty vector control [3] | accepted as substrate as confirmed against the empty vector control [4]

O=C(O)CCCCO [5-hydroxypentanoate]
accepted: accepted as substrate as confirmed against the empty vector control [3] | accepted as substrate as confirmed against the empty vector control [5] | accepted as substrate as confirmed against the empty vector control [6] | accepted as substrate as confirmed against the empty vector control [7] | accepted as substrate as confirmed against the empty vector control [8]

Reference: US9920339B2, “Methods, reagents and cells for biosynthesizing compounds” (INVISTA North America S.á r.l., priority 2014, dated 2018)
